# Assay results from patent US20240287079A1, “6-AMINOPYRAZOLOPYRIMIDINE COMPOUND AND PHARMACEUTICAL USE THEREOF” (Japan Tobacco Inc., priority 2021, published 2024).
# Target: NLRP3 inflammasome (Homo sapiens (Human), UniProt Q96P20)
# Assay: Evaluation of NLRP3 inflammasome inhibitory activity (inhibition of IL-1β production in LPS/Nigericin-stimulated THP1-Null cells)
# Assay type: cell-based
# Details: IL-1β production in THP1-Null cells, PMA, LPS 1 μg/mL, Nigericin 7.5 μmol/L, AlphaLISA
# Experimental: The NLRP3 inflammasome inhibitory activity of test compounds were evaluated on the basis of the inhibitory activity of the IL-1β production in THP1-Null cells (Product Number: thp-null, InvivoGen). […] The supernatant of the culture was removed, and thereto was added media for assay (25 μL/well) containing 1 μg/mL Lipopolysaccharides (Product Number: L2654, Sigma-Aldrich (registered trademark)). […] The supernatant of the culture was removed. […] A solution containing a test compound (20 μL/well) was added to test compound-setting wells. […] The supernatant of the culture was cryonically stored (set at −20° C.) until measurement of IL-1β.
# The amount of IL-1β in the culture supernatant was quantitated with AlphaLISA(registered trademark) Human IL-1β Detection Kit (Product Number: AL220C, Perkin Elmer). Fluorescence intensity was measured with a microplate reader EnSpier (Model number: 2300-00J, Perkin Elmer) or EnSight(Model number: HH34000000, Perkin Elmer) according to procedure manuals attached thereto. Inhibition rates of the test compound-setting wells were calculated on the basis of 100% for the blank-setting wells and 0% for the control-setting wells.
# NLRP3 inflammasome, sequence (Q96P20 whole entry): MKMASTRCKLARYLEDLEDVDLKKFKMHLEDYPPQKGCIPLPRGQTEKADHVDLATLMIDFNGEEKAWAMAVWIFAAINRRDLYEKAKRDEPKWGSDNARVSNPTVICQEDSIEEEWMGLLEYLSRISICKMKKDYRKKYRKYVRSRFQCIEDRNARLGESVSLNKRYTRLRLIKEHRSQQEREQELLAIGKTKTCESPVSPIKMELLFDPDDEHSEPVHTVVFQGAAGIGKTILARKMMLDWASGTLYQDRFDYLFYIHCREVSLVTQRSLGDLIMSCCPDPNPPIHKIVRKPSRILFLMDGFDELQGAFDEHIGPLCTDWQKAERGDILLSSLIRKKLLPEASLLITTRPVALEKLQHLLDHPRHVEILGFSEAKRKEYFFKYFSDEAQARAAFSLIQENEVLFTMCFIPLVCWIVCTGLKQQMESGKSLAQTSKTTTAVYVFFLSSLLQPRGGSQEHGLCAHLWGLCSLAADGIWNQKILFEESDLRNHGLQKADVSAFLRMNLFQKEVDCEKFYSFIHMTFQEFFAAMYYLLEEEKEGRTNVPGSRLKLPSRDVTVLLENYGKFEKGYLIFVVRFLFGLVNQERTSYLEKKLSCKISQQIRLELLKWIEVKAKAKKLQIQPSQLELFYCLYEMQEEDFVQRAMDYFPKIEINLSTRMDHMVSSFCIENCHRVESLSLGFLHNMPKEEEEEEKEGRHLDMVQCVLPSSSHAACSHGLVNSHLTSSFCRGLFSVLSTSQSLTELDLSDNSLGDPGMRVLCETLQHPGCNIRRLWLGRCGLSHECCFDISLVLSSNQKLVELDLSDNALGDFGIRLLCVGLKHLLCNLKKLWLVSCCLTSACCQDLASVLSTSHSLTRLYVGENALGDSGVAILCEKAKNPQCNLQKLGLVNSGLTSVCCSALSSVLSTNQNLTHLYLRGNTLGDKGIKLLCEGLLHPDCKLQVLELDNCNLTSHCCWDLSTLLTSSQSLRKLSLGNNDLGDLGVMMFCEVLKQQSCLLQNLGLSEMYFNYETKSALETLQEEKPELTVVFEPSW
row,Compound,IC50
1,CC(C)(C)OC(=O)N1CCCN(c2nc3nn(-c4ccc(C(F)(F)F)cc4Cl)cc3c(=O)[nH]2)CC1 [Example 132],74 nM
2,O=c1[nH]c(N2CCCNCC2)nc2nn(-c3ccc(C(F)(F)F)cc3Cl)cc12 [Example 133],63 nM
3,CC(=O)N1CCCN(c2nc3nn(-c4ccc(C(F)(F)F)cc4Cl)cc3c(=O)[nH]2)CC1 [Example 134],91 nM
4,CS(=O)(=O)N1CCCN(c2nc3nn(-c4ccc(C(F)(F)F)cc4Cl)cc3c(=O)[nH]2)CC1 [Example 135],43 nM
5,Cc1cc(Br)ccc1-n1cc2c(OC(C)C)nc(N3CCOCC3)nc2n1 [Example 136],230 nM
6,COc1nc(N2CCN(S(C)(=O)=O)CC2)nc2nn(-c3ccc(Br)cc3C)cc12 [Example 137],170 nM
7,Cc1cc(Br)ccc1-n1cc2c(=O)n(C)c(N3CCN(S(C)(=O)=O)CC3)nc2n1 [Example 138],140 nM
8,Cc1cc(Br)ccc1-n1cc2c(=O)[nH]c(N3CCN(S(=O)(=O)C4CC4)CC3)nc2n1 [Example 139],5.3 nM
9,Cc1cc(Br)ccc1-n1cc2c(=O)[nH]c(N3CCN(C(=O)C4CC4)CC3)nc2n1 [Example 140],5.8 nM
10,COCC(=O)N1CCN(c2nc3nn(-c4ccc(Br)cc4C)cc3c(=O)[nH]2)CC1 [Example 141],9.6 nM
11,Cc1cc(Br)ccc1-n1cc2c(=O)[nH]c(N3CCCOCC3)nc2n1 [Example 142],22 nM
12,COCc1cc(Cl)ccc1-n1cc2c(=O)[nH]c(N3CCOCC3)nc2n1 [Example 143],59 nM
13,COCc1cc(Cl)ccc1-n1cc2c(=O)[nH]c(N3CCCC3)nc2n1 [Example 144],24 nM
14,Cc1cc(Br)cc(C)c1-n1cc2c(=O)[nH]c(N3CCCOCC3)nc2n1 [Example 145],12 nM
15,Cc1cc(Br)cc(Cl)c1-n1cc2c(=O)[nH]c(N3CCOCC3)nc2n1 [Example 146],9.2 nM
16,Cc1cc(C)c(-n2cc3c(=O)[nH]c(N4CCOCC4)nc3n2)c(Cl)c1 [Example 148],19 nM
17,Cc1cc(Br)ccc1-n1cc2c(=O)[nH]c(N3CCN(c4ncccn4)CC3)nc2n1 [Example 149],21 nM
18,Cc1c2c(=O)[nH]c(N3CCCC3)nc2nn1-c1ccc(C(F)(F)F)cc1 [Example 151],50 nM
19,Cc1cc(Br)ccc1-n1cc2c(=O)[nH]c(N3CCN(C4CC4)C(=O)C3)nc2n1 [Example 152],77 nM
20,Cc1cc(Br)ccc1-n1cc2c(OCCO)nc(N3CCOCC3)nc2n1 [Example 153],460 nM
21,COCCOc1nc(N2CCOCC2)nc2nn(-c3ccc(Br)cc3C)cc12 [Example 154],590 nM
22,Cc1cc(Br)ccc1-n1cc2c(OCC3CC3)nc(N3CCOCC3)nc2n1 [Example 155],290 nM
23,Cc1cc(Br)ccc1-n1cc2c(OCC#N)nc(N3CCOCC3)nc2n1 [Example 156],290 nM
24,O=c1[nH]c(N2CCCC2)nc2nn(-c3ncc(C(F)(F)F)cc3Cl)cc12 [Example 157],33 nM

row,Compound,IC50
1,Cc1cc(Cl)cc(CO)c1-n1cc2c(=O)[nH]c(N3CCOCC3)nc2n1 [Example 158],92 nM
2,Cc1cc(Cl)cc(C=O)c1-n1cc2c(=O)[nH]c(N3CCOCC3)nc2n1 [Example 160],36 nM
3,COCc1cc(Cl)ccc1-n1cc2c(=O)[nH]c(N3CC(F)(F)C3)nc2n1 [Example 161],22 nM
4,Cc1cc(Br)ccc1-n1cc2c(=O)n(CCO)c(N3CCOCC3)nc2n1 [Example 163],47 nM
5,Cc1cc(Cl)ccc1-n1cc2c(=O)[nH]c(N3CCOCC3)nc2n1 [Example 164],29 nM
6,Cc1cc(Cl)ccc1-n1cc2c(=O)[nH]c(N3CCCOCC3)nc2n1 [Example 165],29 nM
7,Cc1cc(Cl)cc(C)c1-n1cc2c(=O)[nH]c(N3CCOCC3)nc2n1 [Example 166],16 nM
8,Cc1cc(Cl)cc(C(=O)C2CC2)c1-n1cc2c(=O)[nH]c(N3CCOCC3)nc2n1 [Example 167],430 nM
9,Cc1cc(Cl)cc(C#N)c1-n1cc2c(=O)[nH]c(N3CCOCC3)nc2n1 [Example 168],60 nM
10,Cc1cc(Br)ccc1-n1cc2c(=O)[nH]c(N3CC4CC(C3)O4)nc2n1 [Example 169],17 nM
11,Cc1c2c(=O)[nH]c(N3CCCC3)nc2nn1-c1ccc(C(F)(F)F)cc1Cl [Example 170],88 nM
12,COc1ccc(-n2cc3c(=O)[nH]c(N4CCCC4)nc3n2)c(C)c1 [Example 171],29 nM
13,Cc1cc(Br)ccc1-n1cc2c(=O)n(CC#N)c(N3CCOCC3)nc2n1 [Example 172],190 nM
14,Cc1cc(Br)ccc1-n1cc2c(=O)n(CC#N)c(N3CCN(S(C)(=O)=O)CC3)nc2n1 [Example 173],120 nM
15,Cc1cc(Br)cc(C(F)(F)F)c1-n1cc2c(=O)[nH]c(N3CCOCC3)nc2n1 [Example 174],12 nM
16,Cc1cc(C2CC2)cc(C(F)(F)F)c1-n1cc2c(=O)[nH]c(N3CCOCC3)nc2n1 [Example 175],13 nM
17,O=c1[nH]c(N2CCOCC2)nc2nn(-c3ccc(Cl)cc3C(F)(F)F)cc12 [Example 176],27 nM
18,O=c1[nH]c(N2CCOCC2)nc2nn(-c3ccc(C4CC4)cc3C(F)(F)F)cc12 [Example 177],5.6 nM
19,CC(C)(C)OC(=O)N1CC2CN(c3nc4nn(-c5ccc(C(F)(F)F)cc5Cl)cc4c(=O)[nH]3)CC2C1 (stereo not shown) [Example 179],27 nM
20,O=c1[nH]c(N2CC(CCO)C2)nc2nn(-c3ccc(C(F)(F)F)cc3Cl)cc12 [Example 180],35 nM
21,O=c1[nH]c(N2CC(F)C2)nc2nn(-c3ccc(C(F)(F)F)cc3Cl)cc12 [Example 181],17 nM
22,O=c1[nH]c(N2CC(O)C2)nc2nn(-c3ccc(C(F)(F)F)cc3Cl)cc12 [Example 182],79 nM
23,O=c1[nH]c(N2CC3(CC(O)C3)C2)nc2nn(-c3ccc(C(F)(F)F)cc3Cl)cc12 [Example 183],15 nM
24,O=c1[nH]c(NC2CCOCC2)nc2nn(-c3ccc(C(F)(F)F)cc3Cl)cc12 [Example 184],67 nM

row,Compound,IC50
1,CNc1nc2nn(-c3c(C)cc(Br)cc3C)cc2c(=O)[nH]1 [Example 185],5.6 nM
2,O=c1[nH]c(N2CC3CNCC3C2)nc2nn(-c3ccc(C(F)(F)F)cc3Cl)cc12 (stereo not shown) [Example 186],230 nM
3,CC(=O)N1CC2CN(c3nc4nn(-c5ccc(C(F)(F)F)cc5Cl)cc4c(=O)[nH]3)CC2C1 (stereo not shown) [Example 187],38 nM
4,O=c1[nH]c(N2CCOCC2)nc2nn(-c3c(F)cc(C(F)(F)F)cc3Cl)cc12 [Example 189],20 nM
5,O=c1[nH]c(N2CCOCC2)nc2nn(-c3c(Cl)cc(C(F)(F)F)cc3OCC3CC3)cc12 [Example 190],41 nM
6,Cc1cc(Br)ccc1-n1cc2c(=O)[nH]c(N3CC4(COC4)C3)nc2n1 [Example 191],35 nM
7,COC[C@@H]1CCN(c2nc3nn(-c4ccc(Br)cc4C)cc3c(=O)[nH]2)CCO1 [Example 192],32 nM
8,COC[C@H]1CCN(c2nc3nn(-c4ccc(Br)cc4C)cc3c(=O)[nH]2)CCO1 [Example 193],42 nM
9,Cc1cc(Br)cc(C)c1-n1cc2c(=O)[nH]c(N3C[C@@H]4C[C@H]3CO4)nc2n1 [Example 195],6.8 nM
10,O=c1[nH]c(N2CCOCC2)nc2nn(-c3ccc(Br)cc3C3CC3)cc12 [Example 196],11 nM
11,Cc1cc(Br)cc(C)c1-n1cc2c(=O)[nH]c(N3C[C@H]4C[C@@H]3CO4)nc2n1 [Example 197],8 nM
12,Cc1cc(Br)cc(C)c1-n1cc2c(=O)[nH]c(N3CC(F)C3)nc2n1 [Example 198],8 nM
13,Cc1cc(Br)cc(C)c1-n1cc2c(=O)[nH]c(N3CC4(CC(O)C4)C3)nc2n1 [Example 199],6.8 nM
14,Cc1cc(OC(F)(F)F)cc(C)c1-n1cc2c(=O)[nH]c(N3CCOCC3)nc2n1 [Example 200],29 nM
15,O=c1[nH]c(N2CCOCC2)nc2nn(-c3ncc(C(F)(F)F)cc3Br)cc12 [Example 201],190 nM
16,Cc1cc(C2CC2)ncc1-n1cc2c(=O)[nH]c(N3CCOCC3)nc2n1 [Example 202],640 nM
17,COc1cc(Cl)ccc1-n1cc2c(=O)[nH]c(N3CCCC3)nc2n1 [Example 205],32 nM
18,O=c1[nH]c(N2CCOCC2)nc2nn(-c3ccc(Br)cc3OC(F)(F)F)cc12 [Example 206],12 nM
19,Cc1cc(C2CC2)cc(C)c1-n1cc2c(=O)[nH]c(N3C[C@@H]4C[C@H]3CO4)nc2n1 [Example 207],5.9 nM
20,O=c1[nH]c(N2CCOCC2)nc2nn(-c3ccc(C4CC4)cc3OC(F)(F)F)cc12 [Example 208],14 nM
21,"Cc1cc(C2CC2)cc(C)c1-n1cc2c(=O)[nH]c(N3C[C@H]4C[C@@H]3CO4)nc2n1 [Example 209, 6-((1R,4R)-2-oxa-5-azabicyclo[2.2.1]heptan-5-yl)-2-(4-cyclopropyl-2,6-dimethylphenyl)-2,5-dihydro-4H-pyrazolo[3,4-d]pyrimidin-4-one]",5.1 nM
22,O=c1[nH]c(N2CCOCC2)nc2nn(-c3ccc(C4CC4)cc3C3CC3)cc12 [Example 210],7.3 nM
23,Cc1cc(Br)cc(C)c1-n1cc2c(=O)[nH]c(N3CC4CC(C3)O4)nc2n1 [Example 211],4.6 nM
24,O=c1[nH]c(N2CCCC2)nc2nn(-c3ccc(Cl)cc3C(F)(F)F)cc12 [Example 218],5.7 nM

# Same assay, conditions: IL-1β production in THP1-Null cells; test compound 0.0024 μM
row,Compound,inhibition at 0.0024 µM
1,Cc1cc(C2CC2)cc(Cl)c1-n1cc2c(=O)[nH]c(N3CCOCC3)nc2n1 [Example 147],54%
